# “Also recorded” adds a separate entry of the source.
# How the values were obtained:
# Format in all cases: cell-based, human
# APOB^−/− organoids [1] = assay: anti-NAFLD drug screening, Nile Red lipid staining and lipid score; conditions: APOB^−/− organoids exposed to drugs for 7 days
# Protocol: (§1) Compound stocks of all drugs were made in DMSO, except for recombinant hFGF19 and hFGF21 which were reconstituted in AdvDMEM+++. Drugs were dissolved in HEP medium with a maximum final concentration of 0.2% DMSO. The drug panel, their targets, and concentrations tested are described in Table 2.
# (§2) APOB^−/− and MTTP^−/− organoids were exposed to the drugs or vehicle in 24-well plates for 7 days with 2 medium changes. Wild type organoids were first made steatotic by pre-incubation with 500 μM FFAs (oleic acid and palmitic acid, 1:1 ratio) for 2 days. Then, FFA-loaded organoids were treated with the different drugs, still in the presence of FFA, for 7 days with 2 medium changes. All organoids were harvested for subsequent lipid staining and lipid scoring as described below. Drug effects were evaluated by observing the lipid droplet fluorescence characteristics within all organoids within the whole well. Quantitative analyses were performed in representative organoids (n≥3) per drug concentration per steatosis organoid model. Drug effects were validated in at least two independent experiments. For drug screening in PLIN2::tdTomato reporter organoids, the organoids were plated in 96-well black plates and treated with the indicated drugs. Pictures were taken over a 7-day time course using the EVOS FL Auto Imaging System. Images and fluorescence quantifications are representative of two independent experiments.
# (§3) Organoids were carefully harvested in cold AdvDMEM+++ and washed once with cold AdvDMEM+++ using low-speed centrifugations. Organoids were fixed in 4% formaldehyde at RT for 30 min-1 hour. For lipid stainings, organoids were washed twice with PBS, and incubated with Nile Red (1 μg/μl) and DAPI (1 μg/μl) for 20 min at RT. Organoids were washed twice with PBS, and transferred in 100 μl PBS to a well of a 96-well black SensoPlate for imaging analysis. […] Organoids were washed once with 0.5% BSA-PBS and subsequently incubated with primary antibodies in 2.5% BSA-PBS O/N at 4° C. After 3 washes with 0.5% BSA-PBS, organoids were incubated with secondary antibodies in 2.5% BSA-PBS for 2-4 hours at RT. Organoids were washed once with 0.5% BSA-PBS, after which they were incubated with DAPI (1 μg/μl) in 0.5% BSA-PBS for 20 min at RT, and washed once more with 0.5% BSA-PBS. Organoids were then transferred in 100 μl 0.5% BSA-PBS to a well of a 96-well black SensoPlate.
# (§4) Stained organoids were imaged on a Leica Sp8 confocal. Fluorescent images were processed using Photoshop CS4 or ImageJ software. The lipid score was calculated using Fiji software. The lipid score is defined by integrating the lipid droplet fluorescence and lipid droplet area coverage as follows: a fluorescence threshold derived from the lipid droplet signal is determined on Z-projected images to convert them into binary images. The region of interest (ROI) (organoid surface area) is defined based on fluorescence signal from the counterstained DAPI^+ nuclei. Then, particle measurement analysis is performed to define the fluorescence area covered within the defined ROI. The lipid score represents a normalized score of the resulting data on a linear 0 to 1 scale, where the mean calculated values from wild type organoids are arbitrarily set to 0, while the mean calculated values from either vehicle-treated APOB^−/− or MTTP^−/− organoids or vehicle-treated FFA-loaded organoids are set to 1, allowing scoring of drug effectiveness within these boundaries. Quantification of the amount of lipid droplets was performed manually by counting droplets within a given ROI (organoid surface area). The lipid droplet area coverage is determined identical to the lipid score without the final normalization steps.
# MTTP^−/− organoids = assay: as above; conditions: MTTP^−/− organoids exposed to drugs for 7 days
# Protocol: as §1, §2, §3, §4
# [2] = test system: FFA-loaded wild type organoids; assay: as above; conditions: wild type organoids pre-incubated with 500 μM FFAs 2 days, then drugs 7 days in presence of FFA
# Protocol: Wild type human hepatocyte organoids were made steatotic by providing a concentrated mixture of exogenous FFAs (oleic acid (18:1) and palmitic acid (16:0), ratio 1:1) in the culture medium. The FFAs were dissolved in ethanol and thereafter conjugated to bovine serum albumin. Prior to fat loading, organoids were plated into small BME droplets (15 μl/drop) to facilitate FFA penetration. Total concentrations of FFA were 640 μM for transcriptomic analyses to mimic the level of steatosis observed in APOB^−/− or MTTP^−/− organoids.
# as §1
# as §2, with “experiments. […]” for “experiments. For drug screening in PLIN2::tdTomato reporter organoids, the organoids were plated in 96-well black plates and treated with the indicated drugs. Pictures were taken over a 7-day time course using the EVOS FL Auto Imaging System.”, “experiments. […]” for “experiments.”
# as §4, with “Fluorescent images were processed using Photoshop CS4 or ImageJ software.” left out, “Quantification of the amount of lipid droplets was performed manually by counting droplets within a given ROI (organoid surface area). The lipid droplet area coverage is determined identical to the lipid score without the final normalization steps.” left out
# [3] = test system: PLIN2::tdTomato; MTTP^−/− reporter organoids; assay: drug screening in PLIN2 reporter organoids, fluorescence read-out; conditions: PLIN2-tagged reporter organoids, ACCi or vehicle for 5 days
# Excerpt: PLIN2 reporter lines in the background of APOB^−/− or MTTP^−/− organoids were generated using CRISPR-HOT as described previously (Artegiani et al., 2020; Hendriks et al., 2021). Briefly, the transfection mixture consisted of a sgRNA targeting the C-terminus of PLIN2, a plasmid providing both Cas9 and a non-human sgRNA targeting the donor plasmid (Addgene #66940), and a donor plasmid encoding either tdTomato (Addgene #138567) or mNeon (a gift from V. Hornung). Upon transfection, the sgRNA targeting the donor plasmid linearizes the donor plasmid to facilitate NHEJ-mediated in-frame gene knock-in of the fluorescent tag into the PLIN2 C-terminus. Upon outgrowth of transfected organoids, fluorescent organoids became apparent. A bulk PLIN2-tagged fluorescence-pure culture was established by sorting single fluorescence-positive cells by FACS. Genotyping was performed to confirm precise gene knock-in.
# APOB^−/− and MTTP^−/− organoids were exposed to the drugs or vehicle in 24-well plates for 7 days with 2 medium changes. […] Drug effects were evaluated by observing the lipid droplet fluorescence characteristics within all organoids within the whole well. Quantitative analyses were performed in representative organoids (n≥3) per drug concentration per steatosis organoid model. […] Images and fluorescence quantifications are representative of two independent experiments.
# APOB^−/− organoids [4] = assay: bulk RNA-sequencing of drug-treated organoids
# Protocol: Organoids from 1 well of a 12-well plate were harvested and washed in cold AdvDMEM+++. Organoid pellets were lysed in 1 ml TRIzol Reagent and subsequently snap-frozen in liquid nitrogen. RNA was extracted according to the manufacturer's protocol. RNA integrity was measured using the Agilent RNA 6000 Nano kit with the Agilent 2100 Bioanalyzer and RNA concentrations were determined using the Qubit RNA HS Assay Kit. RNA integrity number (RIN) values of RNA samples were typically 9.5-10 and never below 9.0. RNA libraries were prepared TruSeq Stranded mRNA polyA kit and single-end (1×75 bp) sequenced on an Illumina Nextseq 2000 or Nextseq 500. Reads were mapped to the human GRCh38 genome assembly. Differential gene expression analysis was performed using the DESeq2 package (Love et al., 2014) in RStudio. Considered log 2 fold changes and significance (p-values) are indicated throughout the paper. Data visualization was obtained using the ggplot2, ComplexHeatmap, and EnhancedVolcano packages in RStudio or manually plotted using GraphPad Prism 8.
compound,measurement,setting,value
"COc1ccccc1[C@H](Cn1c(=O)n(C(C)(C)C(=O)O)c(=O)c2c(C)c(-c3ncco3)sc21)OC1CCOCC1 [ACCi, Firsocostat]","steatosis phenotype (lipid staining, lipid score)",APOB^−/− organoids [1],Effective
same,"steatosis phenotype (lipid staining, lipid score)",MTTP^−/− organoids,Effective
same,"steatosis phenotype (lipid staining, lipid score)",[2],Effective
same,endogenous fluorescent signal of PLIN2 reporter,[3],reduced the endogenous fluorescent signal
same,expression of genes important for cell proliferation and DNA synthesis,APOB^−/− organoids [4],downregulation
same,"expression of key genes involved in glycolysis (ALDOB, HK2, ENO2, PFKFB3/4)",APOB^−/− organoids [4],downregulated
same,"expression of lipogenic genes (ACACA, FASN, SREBF1, etc.)",APOB^−/− organoids [4],increased expression
"CS(=O)(=O)O.O=C([C@@H]1CCCN(c2ccc3[nH]c(C4(n5cc(Cl)cn5)CC4)nc3n2)C1)N1CCCC1 [DGAT2i, PF06424439]","steatosis phenotype (lipid staining, lipid score)",APOB^−/− organoids [1],Effective
same,"steatosis phenotype (lipid staining, lipid score)",MTTP^−/− organoids,Effective
same,"steatosis phenotype (lipid staining, lipid score)",[2],Effective
same,transcriptomic changes versus vehicle-treated organoids,APOB^−/− organoids [4],transcriptomically identical to vehicle-treated organoids; also recorded: very few transcriptomic changes
"O=C(Nc1ccc2[nH]nc(-c3ccncc3)c2c1)[C@@H]1CCN(CC(=O)N2CCN(c3ccc(-c4ncccn4)cc3)CC2)C1 [ERKi, SCH772984]","steatosis phenotype (lipid staining, lipid score)",APOB^−/− organoids [1],did not alter the steatosis phenotype
same,"steatosis phenotype (lipid staining, lipid score)",MTTP^−/− organoids,did not alter the steatosis phenotype
"Cc1nnc(-c2cc(C(=O)N3CCC(c4ccc(C#N)cc4)CC3)c(C)cc2C2CCC2)[nH]1 [FASi, TVB2640]","steatosis phenotype (lipid staining, lipid score)",APOB^−/− organoids [1],Effective
same,"steatosis phenotype (lipid staining, lipid score)",MTTP^−/− organoids,Effective
same,"steatosis phenotype (lipid staining, lipid score)",[2],Effective
same,expression of genes important for cell proliferation and DNA synthesis,APOB^−/− organoids [4],downregulation
same,"expression of key genes involved in glycolysis (ALDOB, HK2, ENO2, PFKFB3/4)",APOB^−/− organoids [4],downregulated
same,"expression of lipogenic genes (ACACA, FASN, SREBF1, etc.)",APOB^−/− organoids [4],increased expression
"O=C(O)c1ccnc(N2CC(O)(c3ccc(OCc4c(-c5c(Cl)cccc5Cl)noc4C4CC4)cc3Cl)C2)c1 [FXRa, Cilofexor]",FGF19 expression,APOB^−/− organoids [4],strongly upregulated
same,expression of FXR target genes CYP7A1 and CYP27A1,APOB^−/− organoids [4],downregulation
same,expression of NR0B2 (SHP),APOB^−/− organoids [4],induction
same,"expression of de novo lipogenesis-related genes, including DGAT2, ACSS2, and GPAM",APOB^−/− organoids [4],repress
same,"expression of key hepatocyte markers (ALB, TTR)",APOB^−/− organoids [4],downregulation
same,expression of transporters such as BSEP (ABCB11),APOB^−/− organoids [4],induction
same,genes of TGFβ regulation of extracellular matrix,APOB^−/− organoids [4],gene induction patterns suggestive of TGFβ-related extracellular matrix remodeling
"Oc1ccc(-c2nc(-c3ccncc3)c(-c3ccc(F)cc3)[nH]2)cc1 [p38i, SB202190]","steatosis phenotype (lipid staining, lipid score)",APOB^−/− organoids [1],reduced the steatosis phenotype
same,"steatosis phenotype (lipid staining, lipid score)",MTTP^−/− organoids,reduced the steatosis phenotype
"hFGF19: recombinant human FGF19, activates β-Klotho/FGFRs","steatosis phenotype (lipid staining, lipid score)",APOB^−/− organoids [1],marked steatosis-reducing effects
same,"steatosis phenotype (lipid staining, lipid score)",MTTP^−/− organoids,marked steatosis-reducing effects
same,"steatosis phenotype (lipid staining, lipid score)",[2],marked steatosis-reducing effects
same,expression of FXR target genes CYP7A1 and CYP27A1,APOB^−/− organoids [4],downregulation
same,expression of NR0B2 (SHP),APOB^−/− organoids [4],induction
same,"expression of de novo lipogenesis-related genes, including DGAT2, ACSS2, and GPAM",APOB^−/− organoids [4],repress
same,"expression of key hepatocyte markers (ALB, TTR)",APOB^−/− organoids [4],downregulation
same,genes of TGFβ regulation of extracellular matrix,APOB^−/− organoids [4],gene induction patterns suggestive of TGFβ-related extracellular matrix remodeling

# From patent publication US20250011722A1, “HEPATIC ORGANOIDS” (Koninklijke Nederlandse Akademie van Wetenschappen, priority 2021, published 2025)
